In test [1] the test system is Huh-7. The test is described as follows: Antiproliferative activity against human Huh-7 cells assessed as inhibition of cell proliferation incubated for 24 hrs by CCK-8 assay. It counts as functional, cell-based. Particulars: Huh-7, 24 h. For orientation: Formazan colour is commonly taken as a measure of viable cells.
The subject of test [2] is Hep 3B2. The test is described as follows: Antiproliferative activity against human Hep3B cells assessed as inhibition of cell proliferation incubated for 24 hrs by CCK-8 assay. The format is functional, cell-based.
In test [3] the test system is HepG2. The test is described as follows: Antiproliferative activity against human HepG2 cells assessed as inhibition of cell proliferation incubated for 24 hrs by CCK-8 assay. It counts as functional, cell-based. Conditions: HepG2, 24 h.
In test [4] the test system is Huh-7. The test is described as follows: Antimigratory activity against human Huh-7 cells assessed as inhibition of cell migration at 6.25 to 12.5 uM incubated for 48 hrs by scratch wound healing assay. It counts as functional, cell-based. Conditions: dose 6.25-12.5 µM.
Test [5] has as its system Huh-7. The test is described as follows: Induction of apoptosis in human Huh-7 cells assessed as viable cells at 3.125 uM incubated for 24 hrs by Annexin V-FITC/PI staining based flow cytometric analysis (reference value: 92.31 %). The format is functional. Conditions: read-out: Activity.
The subject of test [6] is Huh-7. The test is described as follows: Induction of apoptosis in human Huh-7 cells assessed as early apoptotic cells at 3.125 uM incubated for 24 hrs by Annexin V-FITC/PI staining based flow cytometric analysis (reference value: 2.83 %). The format is functional. (In general: Flow cytometry measures light scatter and fluorescence of single cells or particles in a stream.)

The test system of test [7] is Huh-7. Nature of the test: Induction of apoptosis in human Huh-7 cells assessed as late apoptotic cells at 3.125 uM incubated for 24 hrs by Annexin V-FITC/PI staining based flow cytometric analysis (reference value: 3.19 %). The format is functional.
Test [8] concerns Huh-7. The test is described as follows: Induction of apoptosis in human Huh-7 cells assessed as necrotic cells at 3.125 uM incubated for 24 hrs by Annexin V-FITC/PI staining based flow cytometric analysis (reference value: 1.67 %). It counts as functional.
The test system of test [9] is Huh-7. Nature of the test: Induction of apoptosis in human Huh-7 cells assessed as viable cells at 6.25 uM incubated for 24 hrs by Annexin V-FITC/PI staining based flow cytometric analysis (reference value: 92.31 %). The format is functional. Particulars: read-out: Activity.
Test [10] relates to Huh-7. The test is described as follows: Induction of apoptosis in human Huh-7 cells assessed as early apoptotic cells at 6.25 uM incubated for 24 hrs by Annexin V-FITC/PI staining based flow cytometric analysis (reference value: 2.83 %). It counts as functional.
In test [11] the test system is Huh-7. Nature of the test: Induction of apoptosis in human Huh-7 cells assessed as late apoptotic cells at 6.25 uM incubated for 24 hrs by Annexin V-FITC/PI staining based flow cytometric analysis (reference value: 3.19 %). It counts as functional.
In test [12] the test system is Huh-7. Nature of the test: Induction of apoptosis in human Huh-7 cells assessed as necrotic cells at 6.25 uM incubated for 24 hrs by Annexin V-FITC/PI staining based flow cytometric analysis (reference value: 1.67 %). It counts as functional.
In test [13] the test system is Huh-7. Nature of the test: Induction of apoptosis in human Huh-7 cells assessed as viable cells at 12.5 uM incubated for 24 hrs by Annexin V-FITC/PI staining based flow cytometric analysis (reference value: 92.31 %). The format is functional. Particulars: read-out: Activity.
Test [14] concerns Huh-7. The test is described as follows: Induction of apoptosis in human Huh-7 cells assessed as early apoptotic cells at 12.5 uM incubated for 24 hrs by Annexin V-FITC/PI staining based flow cytometric analysis (reference value: 2.83 %). The format is functional.
Test [15] has as its system Huh-7. The test is described as follows: Induction of apoptosis in human Huh-7 cells assessed as late apoptotic cells at 12.5 uM incubated for 24 hrs by Annexin V-FITC/PI staining based flow cytometric analysis (reference value: 3.19 %). It counts as functional.
Test [16] deals with Huh-7. Nature of the test: Induction of apoptosis in human Huh-7 cells assessed as necrotic cells at 12.5 uM incubated for 24 hrs by Annexin V-FITC/PI staining based flow cytometric analysis (reference value: 1.67 %). The format is functional.
The target in test [17] is Signal transducer and activator of transcription 3 (Homo sapiens) (UniProt P40763). Nature of the test: Inhibition of STAT3 phosphorylation in human Huh-7 cells at 6.25 to 12.5 uM by Western blot analysis. Particulars: dose 6.25-12.5 µM. It counts as cell-based.
Sequence of Signal transducer and activator of transcription 3 (Homo sapiens) (P40763 whole entry): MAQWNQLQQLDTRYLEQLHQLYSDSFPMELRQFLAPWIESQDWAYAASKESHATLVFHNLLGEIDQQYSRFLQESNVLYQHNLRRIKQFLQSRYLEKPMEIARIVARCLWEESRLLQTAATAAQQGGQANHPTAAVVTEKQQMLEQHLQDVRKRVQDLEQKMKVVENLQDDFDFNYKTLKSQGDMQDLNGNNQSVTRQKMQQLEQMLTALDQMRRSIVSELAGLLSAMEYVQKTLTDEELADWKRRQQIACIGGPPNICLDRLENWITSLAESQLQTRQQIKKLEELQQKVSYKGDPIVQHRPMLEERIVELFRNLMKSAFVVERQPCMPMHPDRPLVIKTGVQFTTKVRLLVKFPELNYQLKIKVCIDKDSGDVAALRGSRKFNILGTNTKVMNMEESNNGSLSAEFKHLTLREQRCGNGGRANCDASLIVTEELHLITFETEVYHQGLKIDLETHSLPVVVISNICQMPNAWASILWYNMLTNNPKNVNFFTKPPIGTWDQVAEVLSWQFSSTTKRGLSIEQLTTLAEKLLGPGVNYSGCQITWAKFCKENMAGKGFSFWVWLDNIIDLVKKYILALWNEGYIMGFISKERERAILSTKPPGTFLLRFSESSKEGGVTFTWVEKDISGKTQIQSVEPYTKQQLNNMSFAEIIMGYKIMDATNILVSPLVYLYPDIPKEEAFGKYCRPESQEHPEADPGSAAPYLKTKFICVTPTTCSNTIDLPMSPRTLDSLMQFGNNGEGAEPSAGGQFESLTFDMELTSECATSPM

The text below walks through data of ChEMBL document CHEMBL5215007, “Polycyclic Polyprenylated Acylphloroglucinols Bearing a Lavandulyl-Derived Substituent from Garcinia xanthochymus Fruits” (J Nat Prod, 2022).

Molecules are shown by their SMILES. Active and inactive are the calls of the source. The calls are words filed in the database; no cut-off is given here.

For `C=C(C)[C@H]1C[C@]23C[C@H](CC=C(C)C)C(C)(C)[C@](CC=C(C)C)(C(=O)C(C(=O)c4cccc(O)c4)=C2O[C@@H]1C=C(C)C)C3=O`, the IC50 (commonly the concentration that inhibits the measured activity by half) in test [1] was determined as 25.1 µM; in [2], 17.9 µM; in test [3] it was 22 µM.
`CNC(=O)c1cc(Oc2ccc(NC(=O)Nc3ccc(Cl)c(C(F)(F)F)c3)cc2)ccn1` [SORAFENIB]: the values for the IC50 in [1], in [2] and in [3] were 9.7 µM, 12.4 µM and 16.6 µM, respectively.
The matching figures for `CC(C)=CC[C@@H]1C[C@]23C[C@H](CCC(C)(C)O)C(C)(C)[C@](CC=C(C)C)(C(=O)C(C(=O)c4ccc(O)c(O)c4)=C2OC1(C)C)C3=O`: 20.6 µM, 23.9 µM and 11.7 µM.
The corresponding values for `CC(C)=CC[C@@H]1C[C@]23C[C@H](CCC(C)(C)O)C(C)(C)OC2=C(C(=O)c2ccc(O)c(O)c2)C(=O)[C@@](CC=C(C)C)(C3=O)C1(C)C` are 12.6 µM, 9 µM and 3.9 µM.
For `C=C(C)CC[C@@H]1C[C@]23C[C@@H](CC=C(C)C)C(C)(C)[C@](CC=C(C)C)(C(=O)C(C(=O)c4ccc(O)c(O)c4)=C2OC1(C)C)C3=O`, the IC50 turned out to be 9.3 µM in test [1], 17.1 µM in test [2] and 11.3 µM in test [3]. For the same molecule, the result in test [4] was Active. The viability at 3.125 µM in [5] was found to be 80.8%. Also, the Activity in test [6] came to 11.74%; in test [7], 5.35%; in test [8] it was 2.09%; in test [10] it was 11.09%; in [11] it was 5.65%; in test [12] it was 3.01%. Moreover, the Activity is on record as 11.75% in [14], 6.37% in [15] and 4.17% in test [16]. Moreover, the viability at 6.25 µM in test [9] was determined as 80.3%. For the same molecule, in test [13], the viability at 12.5 µM turned out to be 77.7%. Further, the inhibition result in test [17] is “Active”.
Regarding `C=C(C)CC[C@H]1C[C@]23C[C@@H](CC=C(C)C)C(C)(C)[C@](CC=C(C)C)(C(=O)C(C(=O)c4ccc(O)c(O)c4)=C2OC1(C)C)C3=O`, the half-inhibitory concentration (IC50) in [1] was 22.9 µM; in [2], 15.5 µM; in test [3], 22.5 µM.
On to `C=C(C)[C@H]1C[C@]23C[C@H](CC=C(C)C)C(C)(C)[C@](CC=C(C)C)(C(=O)C(C(=O)c4ccc(O)c(O)c4)=C2O[C@@H]1C=C(C)C)C3=O`, for which the IC50 in test [1] is 18.1 µM; in test [2] it was 18.2 µM; in [3] it was 11 µM.
`CC(C)=CC[C@@H]1C[C@]23C[C@@H](CC=C(C)C)C(C)(C)[C@](CC=C(C)C)(C(=O)C(C(=O)c4ccc(O)c(O)c4)=C2OC1(C)C)C3=O`: the IC50 in test [1] stood at 9.3 µM; in [2], 9.3 µM; in [3], 4.3 µM. For the same molecule, the outcome in test [4] was Active. The viability at 3.125 µM in test [5] is 84.4%. For the same molecule, the Activity in test [6] came to 10.88%; in test [7] it was 3.19%; in [8], 1.53%; in test [10], 8.39%; in test [11], 3.38%; in test [12], 1.69%. The results for the Activity in test [14], in test [15] and in test [16] were 10.38%, 3.3% and 2.55%, respectively. The viability at 6.25 µM in test [9] turned out to be 86.5%. For the same molecule, the viability at 12.5 µM in [13] turned out to be 83.8%. In addition, in [17], the inhibition result was “Active”.
As to `C=C(C)CC[C@@H](C[C@]12C[C@H](CC=C(C)C)C(C)(C)[C@](CC=C(C)C)(C(=O)C(C(=O)c3cccc(O)c3)=C1O)C2=O)C(=C)C`, the IC50 in test [1] amounted to 27.2 µM; in test [2], 20.8 µM; in test [3], 23.2 µM.
As for `C=C(C)CC[C@@H]1C[C@]23C[C@H](CCC(C)(C)O)C(C)(C)[C@](CC=C(C)C)(C(=O)C(C(=O)c4ccc(O)c(O)c4)=C2OC1(C)C)C3=O`, the figures for the IC50 in test [1], in test [2] and in [3] were 17.3 µM, 15.8 µM and 9.5 µM, respectively.
Turning to `C=C(C)CC[C@@H]1C[C@]23C[C@H](CC=C(C)C)C(C)(C)[C@](CC=C(C)C)(C(=O)C(C(=O)c4cccc(O)c4)=C2OC1(C)C)C3=O`, the IC50 in [1] is 28.2 µM; in test [2] it was 44.8 µM; in [3], 12.4 µM.
